Target: cellular IDO1 in HeLa cells (Homo sapiens (Human), UniProt P14902)
Assay: HeLa Cell-Based IDO1 Kyn (Kynurenine) Production Assay
Details: IFN-γ induced IDO1, 48 hours incubation, Kyn absorbance at 480 nm
Method: HeLa Cell-Based IDO1 Kyn (Kynurenine) Production Assay:
The inhibitory activity of IDO1 inhibitors is determined by using a colorimetric reaction to measure Kyn generated from L-Trp (L-Tryptophon) oxidation by cellular IDO1 in HeLa cells after induction of IDO1 expression by IFN-γ.
Hela cells were obtained from the American Type Culture Collection and recovered in 10% FBS-containing phenol red-free DMEM medium. Cells were plated onto a 96-well plate (100 μl/well) at 8000 cells per well and kept at 37° C. in a humidified incubator supplied with 5% CO2. 4 hours later, Human recombinant IFN-γ (8901SC, CST) was added to cells (final concentration 100 ng/mL) to stimulate endogenous IDOL. Compounds at different concentrations diluted in dimethylsulfoxide (DMSO) were added simultaneously with IFN-γ and 0.4 mM L-Trp. Cells were kept at 37° C. in a humidified incubator supplied with 5% CO2. After 48 hours of incubation, 100 μl supernatant from each well was removed to a new plate. The protein in the medium was precipitated with the addition of 8 μl 6N trichloroacetic acid. The plate was incubated at 60° C. for 30 minutes and then centrifugation at 2500 rpm for 10 minutes to remove sediments. 80 μl supernatants were carefully removed to a new clean plate and added with an equal volume of 2% 4-(Dimethylamino)benzaldehyde (D2004, sigma) dissolved in glacial acetic acid. The absorbance at 480 nm wavelength derived from Kyn was measured using a PHERAstar FS plate reader (BMG LABTECH). The IC5C for each compound was derived from fitting the dose-response data to the four-parameter logistic model by using XLfit software (IDBS).

Sequence of cellular IDO1 in HeLa cells (P14902 whole entry): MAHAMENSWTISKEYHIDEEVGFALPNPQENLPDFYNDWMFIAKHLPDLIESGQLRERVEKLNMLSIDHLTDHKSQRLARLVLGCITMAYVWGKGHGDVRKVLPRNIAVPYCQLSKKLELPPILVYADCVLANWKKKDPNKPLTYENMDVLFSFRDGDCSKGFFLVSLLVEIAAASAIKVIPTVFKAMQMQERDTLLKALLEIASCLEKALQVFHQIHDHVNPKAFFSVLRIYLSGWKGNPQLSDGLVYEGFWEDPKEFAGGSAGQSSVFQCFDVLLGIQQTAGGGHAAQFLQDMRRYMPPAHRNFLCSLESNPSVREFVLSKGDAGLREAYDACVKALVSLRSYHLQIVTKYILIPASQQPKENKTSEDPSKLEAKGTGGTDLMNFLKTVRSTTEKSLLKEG

Structure (SMILES) | EC50
Fc1ccc2nccc(C3CCC(c4nc5cc(Cl)c(F)cc5[nH]4)CC3)c2c1 (single isomer, unassigned) [Example C1a, 4-(4-(5-chloro-6-fluoro-1H-benzo[d]imidazol-2-yl)cyclohexyl)-6-fluoroquinoline] | > 10000 nM
Fc1ccc2nccc(C3CCC(c4nc5cc(Cl)c(F)cc5[nH]4)CC3)c2c1 (single isomer, unassigned) [Example C1b, 4-(4-(5-chloro-6-fluoro-1H-benzo[d]imidazol-2-yl)cyclohexyl)-6-fluoroquinoline] | 24 nM
Cc1noc(-c2ccc3nc([C@@H](C)[C@H]4CC[C@@H](c5ccnc6ccc(F)cc65)CC4)[nH]c3c2)n1 [B149] | 0.96 nM
CC(c1nc2c(ccc3ncccc32)[nH]1)[C@H]1CC[C@@H](c2ccnc3ccc(F)cc32)CC1 (stereo partly drawn) [B150] | 10.9 nM
C[C@@H](c1nc2cc(-c3ccccc3)c(F)cc2[nH]1)[C@H]1CC[C@@H](c2ccnc3ccc(F)cc32)CC1 [B156] | 3.1 nM
C[C@@H](c1nc2cc(C(=O)NC3CC3)c(F)cc2[nH]1)[C@H]1CC[C@@H](c2ccnc3ccc(F)cc32)CC1 [B158] | 6.9 nM
CC(C)OC(=O)c1ccc2nc([C@H](C)[C@H]3CC[C@@H](c4ccnc5ccc(F)cc54)CC3)[nH]c2c1 [B176] | 2.9 nM
COC(=O)c1cc(C)c2[nH]c(C(C)C3CCC(c4ccnc5ccc(F)cc45)CC3)nc2c1 (stereo not drawn) [B177] | 6.9 nM
CC(c1nc2cc(-c3ccccc3)c(F)cc2[nH]1)C1CCC(c2ccnc3ccc(F)cc23)CC1 (stereo not drawn) [B181] | 2.7 nM
Cc1cc(C(=O)NC2CCC2)cc2nc([C@@H](C)[C@H]3CC[C@@H](c4ccnc5ccc(F)cc54)CC3)[nH]c12 [B188] | 788 nM
COC(=O)c1ccc2nc(C(C)[C@H]3CC[C@@H](c4ccnc5ccc(F)cc54)CC3)[nH]c2c1F (stereo partly drawn) [B191] | 1.14 nM
CC(c1nc2cc(C(=O)NC3CC3)c(F)c(F)c2[nH]1)[C@H]1CC[C@@H](c2ccnc3ccc(F)cc32)CC1 (stereo partly drawn) [B192] | 8.97 nM
COC(=O)c1cccc2nc([C@@H](C)[C@H]3CC[C@@H](c4ccnc5ccc(F)cc54)CC3)[nH]c12 [B208] | > 1000 nM
CC(c1nc2ccc(C(=O)NC3COC3)cc2[nH]1)[C@H]1CC[C@@H](c2ccnc3ccc(F)cc32)CC1 (stereo partly drawn) [B214] | 84 nM
C[C@H](c1nc2cc(-c3ccccc3)c(F)cc2[nH]1)[C@H]1CC[C@@H](c2ccnc3ccc(F)cc32)CC1 [B219] | 13.7 nM
Fc1ccc2nccc([C@H]3CC[C@H](Cc4nc5cc(C(F)(F)F)ccc5[nH]4)CC3)c2c1 [Example A3a, 6-fluoro-4-((1s,4s)-4-((5-(trifluoromethyl)-1H-benzo[d]imidazol-2-yl)methyl)cyclohexyl)quinoline] | 72 nM

Further molecules by falling EC50, results first:

EC50 | Structure (SMILES)
62.9 nM | C[C@H](c1nc2cc(F)c(-c3cccnc3)cc2[nH]1)[C@H]1CC[C@@H](c2ccnc3ccc(F)cc32)CC1 [B152]
17.1 nM | Cc1cc(C(=O)NC2CCC2)cc2nc([C@H](C)[C@H]3CC[C@@H](c4ccnc5ccc(F)cc54)CC3)[nH]c12 [B187]
6.8 nM | Fc1ccc2nccc([C@H]3CC[C@@H](Cc4nc5cc(C(F)(F)F)ccc5[nH]4)CC3)c2c1 [Example A3b, 6-fluoro-4-((1r,4r)-4-((5-(trifluoromethyl)-1H-benzo[d]imidazol-2-yl)methyl)cyclohexyl)quinoline]
4.86 nM | CC(C)OC(=O)c1ccc2nc(C(C)[C@H]3CC[C@@H](c4ccnc5ccc(F)cc54)CC3)[nH]c2c1 (stereo partly drawn) [B168]
1.8 nM | COC(=O)c1cc2nc(C(C)[C@H]3CC[C@@H](c4ccnc5ccc(F)cc54)CC3)[nH]c2c(F)c1F (stereo partly drawn) [B213]
1.8 nM | C[C@@H](c1nc2cc(-c3ccccc3)c(F)cc2[nH]1)[C@H]1CC[C@@H](c2ccnc3ccc(F)cc32)CC1 [B218]
1.7 nM | CC(c1nc2c(ccc3ccccc32)[nH]1)[C@H]1CC[C@@H](c2ccnc3ccc(F)cc32)CC1 (stereo partly drawn) [B175]
1.6 nM | CCOC(=O)c1ccc2[nH]c(C(C)[C@H]3CC[C@@H](c4ccnc5ccc(F)cc54)CC3)nc2c1 (stereo partly drawn) [B161]

Source: patent publication US11472788B2, “Benzoimidazoles as selective inhibitors of indoleamine 2,3-dioxygenases” (BEIGENE, LTD., priority 2017, dated 2022)
